According to PubChem BioAssay (NCI):
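Here, GI50 denotes the concentration required for 50% inhibition of growth. TGI denotes the concentration required for complete inhibition of growth.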

Tests used:
Assay in all cases: inhibition of tumour cell growth, NCI panel, 384-well format
[1] = system: SK-OV-3 ovarian
[2] = system: UACC-62 melanoma
[3] = system: SNB-75 CNS
[4] = system: DU-145 prostate
[5] = system: SNB-19 CNS
[6] = system: BT-549 breast
[7] = system: NCI-H226 lung
[8] = system: MDA-MB-435 melanoma
[9] = system: T-47D breast
[10] = system: HOP-62 NSCLC
[11] = system: UO-31 renal
[12] = system: SN12C renal
[13] = system: PC-3 prostate
[14] = system: HCC-2998 colon
[15] = system: RPMI-8226 leukemia
[16] = system: HT29 colon
[17] = system: 786-0 renal
[18] = system: RXF 393 renal
[19] = system: LOX IMVI melanoma
[20] = system: NCI-H23 lung
[21] = system: SF-539 CNS
[22] = system: SK-MEL-5 melanoma
[23] = system: A549 NSCLC
[24] = system: UACC-257 melanoma
[25] = system: OVCAR-5 ovarian
[26] = system: M14 melanoma
[27] = system: OVCAR-3 ovarian
[28] = system: SK-MEL-28 melanoma
[29] = system: MOLT-4 leukemia
[30] = system: HCT-116 colon
[31] = system: HS 578T breast
[32] = system: ACHN renal
[33] = system: EKVX NSCLC
[34] = system: OVCAR-4 ovarian
[35] = system: NCI-H322M lung
[36] = system: MALME-3M melanoma
[37] = system: CCRF-CEM leukemia
[38] = system: TK-10 renal
[39] = system: MDA-MB-468 breast
[40] = system: SR leukemia
[41] = system: NCI/ADR-RES ovarian
[42] = system: HL-60(TB) leukemia
[43] = system: SF-268 CNS
[44] = system: SK-MEL-2 melanoma
[45] = system: SW-620 colon
[46] = system: MDA-MB-231 breast
[47] = system: NCI-H460 NSCLC
[48] = system: MCF7 breast
[49] = system: KM12 colon
[50] = system: HOP-92 NSCLC
[51] = system: HCT-15 colon
[52] = system: NCI-H522 lung
[53] = system: A498 renal
[54] = system: SF-295 CNS
[55] = system: CAKI-1 renal
[56] = system: IGROV1 ovarian
[57] = system: K-562 leukemia
[58] = system: U251 glioblastoma

Work on CC(C)C[C@H](NC(=O)CNC(=O)c1cc(Cl)ccc1Cl)B(O)O yielded a GI50 [1] of 184 nM, a TGI [1] of 1520 nM and a GI50 [2] of 27.5 nM. For the same compound, the TGI [2] was 81.1 nM, the GI50 [3] was 111 nM and the TGI [3] was 299 nM. It also gave a GI50 [4] of 46.7 nM, a TGI [4] of 457 nM and a GI50 [5] of 84.2 nM. For the same compound, the TGI [5] was 421 nM, the GI50 [6] was 20.6 nM and the TGI [6] was 36.3 nM. It also gave a GI50 [7] of 11.1 nM, a TGI [7] of 23.6 nM and a GI50 [8] of 16 nM. It also gave a TGI [8] of 30.2 nM, a GI50 [9] of 32.9 nM and a TGI [9] of 62.8 nM. For the same compound, the GI50 [10] was 54.7 nM, the TGI [10] was 268 nM and the GI50 [11] was 26.3 nM. The TGI [11] was 66.1 nM, the GI50 [12] was 62.2 nM and the TGI [12] was 243 nM. For the same compound, the GI50 [13] was 90.8 nM, the TGI [13] was 298 nM and the GI50 [14] was 30.6 nM. The TGI [14] was 130 nM, the GI50 [15] was under 10 nM and the GI50 [16] was 19.8 nM. The TGI [16] was 45.2 nM, the GI50 [17] was 37.7 nM and the TGI [17] was 170 nM. For the same compound, the GI50 [18] was 18 nM, the TGI [18] was 33 nM and the GI50 [19] was 40.6 nM. For the same compound, the TGI [19] was 136 nM, the GI50 [20] was 22.7 nM and the TGI [20] was 65.5 nM. It also gave a GI50 [21] of 20.7 nM, a TGI [21] of 35.2 nM and a GI50 [22] of 19.7 nM. It also gave a TGI [22] of 41.7 nM, a GI50 [23] of 130 nM and a TGI [23] of 1680 nM. For the same compound, the GI50 [24] was 20 nM, the TGI [24] was 36.7 nM and the GI50 [25] was 66.6 nM. For the same compound, the TGI [25] was 277 nM, the GI50 [26] was 17.1 nM and the TGI [26] was 32.4 nM. For the same compound, the GI50 [27] was 14.9 nM, the TGI [27] was 31.4 nM and the GI50 [28] was 16.6 nM. For the same compound, the TGI [28] was 32 nM, the GI50 [29] was under 10 nM and the TGI [29] was 11.4 nM. For the same compound, the GI50 [30] was 17.5 nM, the TGI [30] was 34 nM and the GI50 [31] was 20.9 nM. The TGI [31] was 39.4 nM, the GI50 [32] was 20.8 nM and the TGI [32] was 71.2 nM. The GI50 [33] was 83 nM, the TGI [33] was 396 nM and the GI50 [34] was 82.1 nM. The TGI [34] was 219 nM, the GI50 [35] was 572 nM and the TGI [35] was 6500 nM. The GI50 [36] was 16.9 nM, the TGI [36] was 35 nM and the GI50 [37] was under 10 nM. The GI50 [38] was 20.8 nM, the TGI [38] was 54 nM and the GI50 [39] was 18.9 nM. The TGI [39] was 38.7 nM, the GI50 [40] was 11.1 nM and the TGI [40] was 23.4 nM. For the same compound, the GI50 [41] was 235 nM, the TGI [41] was 781 nM and the GI50 [42] was 10.9 nM. It also gave a TGI [42] of 23 nM, a GI50 [43] of 26 nM and a TGI [43] of 60.6 nM. For the same compound, the GI50 [44] was 33.6 nM, the TGI [44] was 51.3 nM and the GI50 [45] was 17.7 nM. It also gave a TGI [45] of 34 nM, a GI50 [46] of 29.3 nM and a TGI [46] of 66.1 nM. The GI50 [47] was 61.6 nM, the TGI [47] was 263 nM and the GI50 [48] was 34.7 nM. For the same compound, the TGI [48] was 2660 nM, the GI50 [49] was 50.7 nM and the TGI [49] was 165 nM. The GI50 [50] was 27.5 nM, the TGI [50] was 81.7 nM and the GI50 [51] was 29.2 nM. It also gave a TGI [51] of 115 nM, a GI50 [52] of 16.5 nM and a TGI [52] of 30.9 nM. It also gave a GI50 [53] of 71.4 nM, a TGI [53] of 1310 nM and a GI50 [54] of 55.5 nM. It also gave a TGI [54] of 236 nM, a GI50 [55] of 31.2 nM and a TGI [55] of 155 nM. The GI50 [56] was 80.2 nM, the TGI [56] was 590 nM and the GI50 [57] was 33.8 nM. For the same compound, the TGI [57] was 126 nM, the GI50 [58] was 67.6 nM and the TGI [58] was 1100 nM.
